Measurements from patent publication US20140023611A1 (priority 2010, published 2014).

Assays:
human NaP2b (SLC34A2) = target: T1, human NaP2b (SLC34A2) (Homo sapiens, UniProt O95436); test: Inhibition of NaP2b-mediated Pi (33P) uptake in transfected HEK293 cells, human NaP2b; assay type: cell-based; conditions: read-out: pIC50 range for human NaP2b (converted)
T1 construct: host or cells: HEK293
T1 sequence (O95436 1-690): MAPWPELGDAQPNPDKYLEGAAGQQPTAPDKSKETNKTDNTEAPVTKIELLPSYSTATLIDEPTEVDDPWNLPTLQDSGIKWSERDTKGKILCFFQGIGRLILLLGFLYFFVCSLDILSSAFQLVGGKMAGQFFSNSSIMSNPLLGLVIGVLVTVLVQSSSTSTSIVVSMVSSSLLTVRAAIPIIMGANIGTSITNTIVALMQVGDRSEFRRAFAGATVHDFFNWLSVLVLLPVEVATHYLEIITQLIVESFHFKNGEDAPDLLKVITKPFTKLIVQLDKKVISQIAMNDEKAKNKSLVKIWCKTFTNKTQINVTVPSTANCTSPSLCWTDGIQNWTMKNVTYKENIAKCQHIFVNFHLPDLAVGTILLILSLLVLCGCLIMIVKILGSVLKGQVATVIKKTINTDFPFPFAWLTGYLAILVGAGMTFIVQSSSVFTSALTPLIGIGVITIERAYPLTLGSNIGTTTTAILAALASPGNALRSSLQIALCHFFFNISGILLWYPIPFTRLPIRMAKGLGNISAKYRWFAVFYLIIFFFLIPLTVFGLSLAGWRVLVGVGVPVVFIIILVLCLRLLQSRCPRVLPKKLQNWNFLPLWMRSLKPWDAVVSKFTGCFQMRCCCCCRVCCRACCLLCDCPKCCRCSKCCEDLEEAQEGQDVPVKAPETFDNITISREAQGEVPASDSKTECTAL
Method: HEK293 cells were obtained from the American Type Culture collection and propagated per their instructions. Expression clones for rat and human NaP2b (SLC34A2) were obtained from Open Biosystems (Catalog numbers MRN1768-9510282, and MHS1010-99823026, respectively). The sequence of the human protein was mutated to insert a threonine after residue 37, and to introduce a N39D mutation.
The rate of phosphate (Pi) uptake into HEK293 cells was measured using a modification of the method described by Mohrmann et al. (Mohrmann, I., Mohrmann, M., Biber, J., and Murer, H. (1986) Am. J. Phys. 250(3 Pt 1):G323-30.) Transfected HEK293 cells were treated with a pharmacological agent to minimize endogenous PiT-mediated phosphate transport activity, such that the only remaining sodium-dependent phosphate transport activity is that which was bestowed by introduction of the NaP2b genes.
Cells were seeded into 96-well plates at 25,000 cells/well and cultured overnight. Lipofectamine 2000 (Invitrogen) was used to introduce the NaP2b cDNA, and the cells were allowed to approach confluence during a second overnight incubation. […] Cells were then overlayed with either choline uptake buffer or sodium uptake buffer (14 mM Tris, 137 mM sodium chloride, 5.4 mM KCl, 2.8 mM CaCl2, 1.2 mM MgSO4, 100 uM KH2PO4, PiT-silencing agent, 1 mg/mL Bovine Serum Albumin, pH 7.4) containing 6-9 uCi/mL ^33P orthophosphoric acid (Perkin Elmer) and test compound. Each compound was tested at twelve concentrations ranging from 0.1 nM to 30 uM. Assays were run in duplicate.
After incubation for 3-30 minutes at room temperature, assay mixtures were removed, and the cells were washed twice with ice cold stop solution (137 mM sodium chloride, 14 mM Tris, pH 7.4). Cells were lysed by addition of 20 μL 0.1% Tween 80 followed by 100 μL scintillation fluid, and counted using a TopCount (Perkin Elmer).
pIC50 (the negative log of the IC50) values of the test compounds were calculated using GraphPad Prism.

rat NaP2b (SLC34A2) = target: T2, rat NaP2b (SLC34A2) (Rattus norvegicus, UniProt Q9JJ09); test: Inhibition of NaP2b-mediated Pi (33P) uptake in transfected HEK293 cells, rat NaP2b; assay type: cell-based; conditions: 33P Pi uptake, 0.1 mM phosphate, value given as pIC50 range
T2 construct: host or cells: HEK293
T2 sequence (Q9JJ09 1-695): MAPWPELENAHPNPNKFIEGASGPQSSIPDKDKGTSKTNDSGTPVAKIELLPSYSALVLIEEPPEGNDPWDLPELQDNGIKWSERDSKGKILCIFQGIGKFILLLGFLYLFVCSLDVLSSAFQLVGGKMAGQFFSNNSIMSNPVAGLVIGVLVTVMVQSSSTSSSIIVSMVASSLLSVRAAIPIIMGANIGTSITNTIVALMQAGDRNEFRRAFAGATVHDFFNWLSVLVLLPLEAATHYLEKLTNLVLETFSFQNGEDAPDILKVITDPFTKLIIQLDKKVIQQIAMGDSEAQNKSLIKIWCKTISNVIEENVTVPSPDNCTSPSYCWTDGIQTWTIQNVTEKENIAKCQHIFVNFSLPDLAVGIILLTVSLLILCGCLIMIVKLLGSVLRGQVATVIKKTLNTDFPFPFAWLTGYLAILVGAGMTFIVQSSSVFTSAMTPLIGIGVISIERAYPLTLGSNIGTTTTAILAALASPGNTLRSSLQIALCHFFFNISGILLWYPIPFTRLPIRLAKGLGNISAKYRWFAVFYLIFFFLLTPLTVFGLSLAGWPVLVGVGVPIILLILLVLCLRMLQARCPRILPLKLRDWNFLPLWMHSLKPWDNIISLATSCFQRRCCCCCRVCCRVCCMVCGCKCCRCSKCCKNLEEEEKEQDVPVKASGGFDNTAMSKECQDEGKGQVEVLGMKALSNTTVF
Outline: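 The cells transiently expressed NaP2b after Lipofectamine transfection. Each compound was run in duplicate over twelve concentrations, 0.1 nM–30 uM.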

| Compound | IC50 (human NaP2b (SLC34A2)) | IC50 (rat NaP2b (SLC34A2)) |
| --- | --- | --- |
| O=C(O)CCSCc1cccc(C(=O)Nc2ccc(N3CCCCC3)cc2-c2cc(NCc3ccccc3)ncn2)c1 [Example 3.7, 3-((3-((2-(6-(Benzylamino)pyrimidin-4-yl)-4-(piperidin-1-yl)phenyl)carbamoyl)benzyl)thio)propanoic acid] | 10 to 31.6 µM | 10 to 31.6 µM |
| O=C(O)CCSCc1cccc(C(=O)Nc2ccc(N3CCCCC3)cc2-c2cc(Nc3cccc(C(F)(F)F)c3)ncn2)c1 [Example 3.10, 3-((3-((4-(Piperidin-1-yl)-2-(6-((3-(trifluoromethyl)phenyl)amino)pyrimidin-4-yl)phenyl)carbamoyl)benzyl)thio)propanoic acid] | 10 to 31.6 µM | 1 to 7.94 µM |
| O=C(CCSCc1cccc(C(=O)Nc2ccc(N3CCCCC3)cc2-c2cc(C(=O)NCc3cccc(C(F)(F)F)c3)ccn2)c1)NCCOCCOCCOCCOCCOCCOCCOCCO [Example 4.19, 2-(2-(3-(29-Hydroxy-5-oxo-9,12,15,18,21,24,27-heptaoxa-2-thia-6-azanonacosyl)benzamido)-5-(piperidin-1-yl)phenyl)-N-(3-(trifluoromethyl)benzyl)isonicotinamide] | 1 to 7.94 µM | 1 to 7.94 µM |
| CN(Cc1cncn1C)C(=O)c1cccc(C(=O)Nc2ccc(N3CCCCC3)cc2-c2cc(C(=O)NCc3cccc(C(F)(F)F)c3)ccn2)c1 [Example 4.26] | < 1 µM | 1 to 7.94 µM |
| O=C(O)CCOCCOCCOCCNC(=O)c1cccc2c1ccn2Cc1cccc(C(=O)Nc2ccc(N3CCCCC3)cc2-c2cc(C(=O)NCc3cccc(C(F)(F)F)c3)ccn2)c1 [Example 9.2, 1-Oxo-1-(1-(3-((4-(piperidin-1-yl)-2-(4-((3-(trifluoromethyl)benzyl)carbamoyl)pyridin-2-yl)phenyl)carbamoyl)benzyl)-1H-indol-4-yl)-5,8,11-trioxa-2-azatetradecan-14-oic acid] | < 1 µM | 1 to 7.94 µM |
| CN(CCN1CCOCC1)C(=O)c1cccc(C(=O)Nc2ccc(N3CCCCC3)cc2-c2cc(C(=O)N[C@@H]3CCCc4ccccc43)ccn2)c1 [Example 97] | 1 to 7.94 µM | 1 to 7.94 µM |
| CN(CCN1CCOCC1)C(=O)c1cccc(C(=O)Nc2ccc(N3CCCCC3)cc2-c2cc(C(=O)NCc3ccc(C(C)(C)C)cc3)ccn2)c1 [Example 122, N1-(2-(4-((4-tert-butylbenzyl)carbamoyl)pyridin-2-yl)-4-(piperidin-1-yl)phenyl)-N3-methyl-N3-(2-morpholinoethyl)isophthalamide] | 1 to 7.94 µM | 1 to 7.94 µM |
| CN(CCN1CCOCC1)C(=O)c1cccc(C(=O)Nc2ccc(OC3CCC3)cc2-c2cc(C(=O)N[C@H]3CCCc4ccccc43)ccn2)c1 [Example 132, N1-(2-(4-(((S)-1,2,3,4-tetrahydronaphthalen-1-yl)carbamoyl)pyridin-2-yl)-4-cyclobutoxyphenyl)-N3-methyl-N3-(2-morpholinoethyl)isophthalamide] | < 1 µM | < 1 µM |
| CCN(CC)c1ccc(NC(=O)c2cccc(CSCCOCCOCCOCCOCCC(=O)NC(CO)CO)c2)c(-c2cc(C(=O)N[C@H]3CCCc4ccccc43)ccn2)c1 [Example 159, (S)-2-(5-(diethylamino)-2-(3-(20-hydroxy-19-(hydroxymethyl)-17-oxo-5,8,11,14-tetraoxa-2-thia-18-azaicosyl)benzamido)phenyl)-N-(1,2,3,4-tetrahydronaphthalen-1-yl)isonicotinamide] | < 1 µM | < 1 µM |
| CCN(CC)c1ccc(NC(=O)c2cccc(COCCOCCOCCOCCOC(=O)NCCOCCOCCOCCOCCOCCOCCOC)c2)c(-c2cc(C(=O)NCc3cccc(C(F)(F)F)c3)ccn2)c1 [Example 175, 1-(3-(4-(diethylamino)-2-(4-(3-(trifluoromethyl)benzylcarbamoyl)pyridin-2-yl)phenylcarbamoyl)phenyl)-2,5,8,11-tetraoxamidecan-13-yl 2,5,8,11,14,17,20-heptaoxadocosan-22-ylcarbamate] | 1 to 7.94 µM | 1 to 7.94 µM |
| CCN(CC)c1ccc(NC(=O)c2cccc(COCCOCCOCCOCCOCCOCCN(CCO)CCO)c2)c(-c2cc(C(=O)NCc3cccc(C(F)(F)F)c3)ccn2)c1 [Example 178, 2-(5-(diethylamino)-2-(3-(22-hydroxy-20-(2-hydroxyethyl)-2,5,8,11,14,17-hexaoxa-20-azadocosyl)benzamido)phenyl)-N-(3-(trifluoromethyl)benzyl)isonicotinamide] | 1 to 7.94 µM | 1 to 7.94 µM |
| CCN(CC)c1ccc(NC(=O)c2cccc(COCCOCCOCCOCCOCCOCCN(C)CCN3CCOCC3)c2)c(-c2cc(C(=O)NCc3cccc(C(F)(F)F)c3)ccn2)c1 [Example 179, 2-(5-(diethylamino)-2-(3-(20-methyl-22-morpholino-2,5,8,11,14,17-hexaoxa-20-azadocosyl)benzamido)phenyl)-N-(3-(trifluoromethyl)benzyl)isonicotinamide] | 1 to 7.94 µM | 1 to 7.94 µM |
| O=C(O)c1cccc(COc2cccc(C(=O)Nc3ccc(N4CCCCC4)cc3-c3cc(C(=O)NCc4cccc(C(F)(F)F)c4)ccn3)c2)c1 [Example 183, 3-((3-(4-(piperidin-1-yl)-2-(4-(3-(trifluoromethyl)benzylcarbamoyl)pyridin-2-yl)phenylcarbamoyl)phenoxy)methyl)benzoic acid] | 1 to 7.94 µM | 1 to 7.94 µM |
| O=C(O)c1cccc(COCc2cccc(C(=O)Nc3ccc(N4CCCCC4)cc3-c3cc(C(=O)NCc4cccc(C(F)(F)F)c4)ccn3)c2)c1 [Example 185, 3-((3-(4-(piperidin-1-yl)-2-(4-(3-(trifluoromethyl)benzylcarbamoyl)pyridin-2-yl)phenylcarbamoyl)benzyloxy)methyl)benzoic acid] | < 1 µM | 1 to 7.94 µM |
| CN(CCN1CCC[C@H]1C(=O)OC(C)(C)C)C(=O)c1cccc(C(=O)Nc2ccc(N3CCCCC3)cc2-c2cc(C(=O)N[C@H]3CCCc4ccccc43)ccn2)c1 [Example 187, (S)-tert-butyl 1-(2-(N-methyl-3-((4-(piperidin-1-yl)-2-(4-(((S)-1,2,3,4-tetrahydronaphthalen-1-yl)carbamoyl)pyridin-2-yl)phenyl)carbamoyl)benzamido)ethyl)pyrrolidine-2-carboxylate] | 1 to 7.94 µM | < 1 µM |
